We go through two compounds from patent US6372781B1, “Compounds for treating gastroduodenal diseases” (Pfizer Inc., priority 1994, dated 2002).

For experiment [1], the system named is Helicobacter pylori. The experiment in a line: in vitro screen against Helicobacter pylori (agar dilution / microdilution broth MIC). Type of experiment: cell-based. For orientation: Agar dilution tests growth on a series of plates holding different concentrations.
For another experiment, the system named is Bacillus subtilis. The conditions noted are these: against Bacillus subtilis; cited from earlier work.
For the next experiment, the system named is Cladosporium cucumerinum. The conditions noted are these: against Cladosporium cucumerinum; cited from earlier work.
A further experiment relates to Ophiostoma ulmi. The conditions noted are these: against Ophiostoma ulmi; cited from earlier work.
Another experiment deals with Escherichia coli. The following applies: against Escherichia coli; cited from earlier work.
Another experiment concerns Botrytis cinerea. The following applies: against Botrytis cinerea; cited from earlier work.
In a further experiment the test system is Aspergillus niger. The conditions noted are these: against Aspergillus niger; cited from earlier work.
The test system of a further experiment is Bacillus cereus. The following applies: against Bacillus cereus; cited from earlier work.
In another experiment the test system is Saccharomyces cerevisiae. The following applies: against Saccharomyces cerevisiae; cited from earlier work.
The test system of experiment [2] is Helicobacter pylori. The conditions noted are these: cited from earlier work.

Consider `COc1cc(O)cc2c1C(=O)OC2CCCCCC1CCCC2(CCC(C)O2)O1` (stereo not shown) [spirolaxine], for which the “helicobactericidal activity (kills Helicobacter pylori)” value in the experiment on Helicobacter pylori [1] is on record as “potent helicobactericidal”. In addition, the bacteriostatic activity entry in the experiment with Bacillus subtilis, in the experiment on Escherichia coli and in the experiment on Bacillus cereus was “weak bacteriostatic activity” in each case. Besides, the antifungal activity entry in the experiment with Cladosporium cucumerinum, in the experiment on Ophiostoma ulmi, with Botrytis cinerea, in the experiment with Aspergillus niger and in the experiment with Saccharomyces cerevisiae was “no antifungal activity” each time.
With colloidal bismuth subcitrate, the helicobactericidal activity entry in the experiment on Helicobacter pylori [2] was “helicobactericidal”.
